As a reminder, the MIC is the smallest concentration in the dilution series that meets the test's criterion for growth inhibition. A low value points to greater potency. The term IC50 denotes the point on the concentration scale where inhibition reaches its midpoint.

Series [1] deals with P. aeruginosa 27853. Kind of series: MIC assay, liquid medium microdilution (planktonic growth). Format: cell-based, Pseudomonas aeruginosa. Particulars: P. aeruginosa 27853, 24 h at 37 °C. On the procedure:
(§1) The antibacterial assays were performed on Gram-negative (Escherichia coli ATCC 25922, E. coli 5, Pseudomonas aeruginosa ATCC 27853, P. aeruginosa ATCC 9027) and Gram-positive (Staphylococcus aureus ATCC 25923, S. aureus ATCC 6538, MRSA (Meticillin-resistant S. aureus) 388, ATCC, American Type Culture Collection) bacterial strains. Microbial suspensions (1.5 × 10^8 CFU/mL; colony forming units (CFU)) corresponding to 0.5 McFarland density obtained from 15 to 18-h bacterial cultures developed on solid media were used. The antimicrobial activity was tested on Mueller–Hinton agar medium.
(§2) The quantitative assay of the antimicrobial activity was performed by the liquid medium microdilution method, in 96-well multi-well plates, to establish the minimal inhibitory concentration (MIC). For this purpose, serial two-fold dilutions of the compounds ranging between 1.000 and 1.95 μg/mL were performed in a 200 μL volume of broth and each well was seeded with 50 μL microbial inoculums. Sterility control (wells containing only culture medium) and culture controls (wells containing culture medium seeded with the microbial inoculum) were used. The influence of the DMSO solvent was also quantified in a series of wells containing DMSO, diluted accordingly with the dilution scheme used for the complexes. The plates were incubated for 24 h at 37 °C, and MIC values were considered as the lowest concentration of the tested compound that inhibited the visible growth of the microbial overnight cultures.

Another series relates to P. aeruginosa 9027. The description is as above. Particulars: P. aeruginosa 9027 (multi-drug-resistant), 24 h at 37 °C. Type of series: cell-based, Pseudomonas aeruginosa. As to the method: as §1, §2
Series [2] concerns Saccharomyces cerevisiae (wild-type, WT) laboratory strain BY4741. As to the kind of experiment: Yeast cell proliferation (toxicity). Format: cell-based. Particulars: for Effect on cell proliferation: 0.1–0.2 mM final concentration in liquid YPD, compared to cells grown without compounds; for IC50: S. cerevisiae BY4741 (WT), liquid YPD. On the procedure: (§3) The Saccharomyces cerevisiae laboratory strain BY4741 (MATa; his3Δ1; leu2Δ0; met15Δ0; ura3Δ0), considered wild type (WT), and the isogenic strains sod1Δ and sod2Δ lacking the genes SOD1 (encoding Cu/Zn-superoxide dismutase) and SOD2 (encoding Mn-superoxide dismutase) were purchased from EUROSCARF (Frankfurt, Germany). Cells were maintained and manipulated and grown in YPD medium (1% w/v yeast extract, 2% w/v peptone, 2% w/v glucose; 2% w/v agar was added for solid media). Complexes were added to autoclaved media from DMSO sterile stocks (10 mM). To determine the effect of compounds on yeast growth, a fresh overnight pre-culture was 10^3-fold diluted in YPD and incubated (200 rpm, 30 °C) until the culture reached a density of 5 × 10^5 cells/mL. At this point, the compounds were added to the desired concentrations, and cell proliferation was monitored at 660 nm in a 96-well multi-scanner autoreader plate reader equipped with a thermostat and shaker (Varioskan Thermo Fischer Scientific, Vantaa, Finland). The uptake of compounds by yeast cells was determined indirectly by measuring the increase of the total cellular copper content normalized to the total cellular protein determined by Bradford assay. All determinations were done on three biological replicates. The IC50 was calculated by nonlinear regression analysis using the Graphpad Prism software.

The subject of the next series is sod1Δ cells. Type of series: cell-based, Saccharomyces cerevisiae. Particulars: sod1Δ cells lacking Cu/Zn-superoxide dismutase Sod1. On the procedure: as §3
Another series concerns sod2Δ cells. Type of series: cell-based, Saccharomyces cerevisiae. Particulars: sod2Δ cells lacking Mn-superoxide dismutase Sod2. As to the method: as §3
A short description of series [3]: Superoxide scavenging ability by EPR spectroscopy. Particulars: 2.5 μM complex in DMSO, O2− 10, 20 and 30 µM. On the procedure:
The superoxide scavenging ability of the complexes was tested using the KO2 compound as a superoxide source combined with EPR spectroscopy. […] The KO2 was dissolved by complexation with dibenzo-18-crown-6-ether.

A further series concerns λ-DNA. As to the kind of experiment: UV-Vis absorption titration with DNA. Format: binding, bacteriophage lambda. The note with it: 3 μM complex, increasing λ-DNA, Tris/HCl/NaCl buffer pH 8. As to the method: To determine whether compounds have the capacity to interact with DNA, 48,500 base-pairs of genomic DNA from bacteriophage lambda (λ-DNA, Promega. Madison USA) was used. A stock solution of 10 µM λ-DNA (base-pair concentration) was prepared in 10 mM Tris/HCl buffer containing 1 mM NaCl, pH 8.
The UV-Vis absorption titration experiments were done maintaining constant the complex concentration (3 µM) and increasing the concentration of λ-DNA, in Tris-HCl/NaCl buffer solution, at room temperature, until a saturation state was achieved. After DNA addition, the solutions were allowed to equilibrate for 5 min at room temperature. The UV-Vis absorption spectra were recorded with a Jasco V-630 spectrophotometer, using a 10 mm quartz cell. Stock solutions of compounds were prepared in DMSO (1 mM) and diluted to 3 µM in 10 mM Tris/HCl containing 1 mM NaCl, pH 8.

Series [4] deals with P. aeruginosa 27853. Kind of series: MBEC assay, micro-titer method (biofilm). Type of series: cell-based, Pseudomonas aeruginosa. On the procedure: as §1
The assessment of the complexes’ influence on the microbial ability to colonize an inert substratum with the establishment of the minimal biofilm eradication concentration (MBEC) was performed by the micro-titer method, following previously described protocols. The absorbance at 490 nm was measured with an Apollo LB 911ELISA (Berthold Technologies GmbH & Co. KG, Waltham, MA, USA) reader. All experiments were performed in triplicates.

In the next series the test system is S. aureus 25923. As to the kind of experiment: MIC assay, liquid medium microdilution (planktonic growth). Type of series: cell-based, Staphylococcus aureus. Particulars: S. aureus 25923, 24 h at 37 °C. As to the method: as §1, §2
Background: In broth dilution the organism is exposed to a series of concentrations in liquid medium.

Another series deals with MRSA. The series is described as above. Format: cell-based, Staphylococcus aureus. The note with it: 24 h at 37 °C. As to the method:
as §1, §2

Another series has as its system S. aureus 6538. The series is described as above. Type of series: cell-based, Staphylococcus aureus. Particulars: S. aureus 6538, 24 h at 37 °C. As to the method: as §1, §2
Series [5] relates to human red blood cells (hRBCs). Kind of series: Hemolytic activity (adapted ASTM F 756-00). Type of series: cell-based. Particulars: 25 µg/mL, 4 h at 37 °C, threshold 5% (ASTM F 756-00). On the procedure:
The hemolytic activity of the compounds was determined using an adapted protocol of ASTM F 756–00 standard based on hemoglobin release from human red blood cells (hRBCs) resulting after cell lyses. Briefly, the blood samples were collected from healthy volunteers, diluted to a concentration of hemoglobin ~10 mg/mL with phosphate buffer saline (PBS) and then incubated with various concentrations of compounds for 4 h at 37 °C. After 4 h, the cells were centrifuged, the supernatant was collected, transferred into 96-well tissue culture plates and mixed with Drabkin reagent, which converts hemoglobin to cyanmethemoglobin (absorption peak at 540 nm). After 15 min, the absorbance of the samples was read at 570 nm using a plate reader. The obtained data was background corrected and used to calculate the hemolytic index as percentage of the hemoglobin released after the treatment with the tested compounds, relative to control samples. The hRBCs in PBS and distilled water were used as negative and positive controls.

Take `Cc1cc(-c2ccccc2)nc2ncnn12.[Cu+2].[O-][Cl+3]([O-])([O-])[O-].[O-][Cl+3]([O-])([O-])[O-].c1ccc(-c2ccccn2)nc1.c1ccc(-c2ccccn2)nc1` [(1), [Cu(bpy)2(pmtp)](ClO4)2]: the MIC in the series with P. aeruginosa 27853 [1], against P. aeruginosa 9027, in the series with S. aureus 25923, with MRSA and in the series on S. aureus 6538 was 400 µM throughout. In [2], the “Effect on cell proliferation” value is recorded as “did not significantly affect cell proliferation”. The IC50 in series [2] worked out at 480 ± 160 µM. The “Toxicity compared with WT yeast” value in the series on sod1Δ cells and with sod2Δ cells was “even more toxic” in each case. For the same compound, the “Superoxide scavenging (EPR signal decrease)” value in series [3] is reported as “trap the superoxide radicals”. For the same compound, in the series on λ-DNA, the “Change of UV absorption spectrum on binding to λ-DNA” value was “decrease in the absorption intensity of the band located at 290 nm”. The compound also returned an MBEC value with P. aeruginosa 27853 [4] of 0.40 mM. Also, in [5], the Hemolysis is reported as 0.59 ± 0.18%.

As to `Cc1cc(-c2ccccc2)nc2ncnn12.[Cu+2].[O-][Cl+3]([O-])([O-])[O-].[O-][Cl+3]([O-])([O-])[O-].c1cnc2c(c1)ccc1cccnc12.c1cnc2c(c1)ccc1cccnc12` [(2), [Cu(phen)2(pmtp)](ClO4)2], the minimal inhibitory concentration (MIC) with P. aeruginosa 27853 [1] turned out to be 90 µM; against P. aeruginosa 9027, 90 µM; in the series on S. aureus 25923, 10 µM; in the series with MRSA, 50 µM; in the series with S. aureus 6538 it was 90 µM. Further, the “Effect on cell proliferation” value in series [2] is “did not significantly affect cell proliferation”. This compound came in with an IC50 in series [2] of 580 ± 210 µM. The “Toxicity compared with WT yeast” value with sod1Δ cells and with sod2Δ cells was “even more toxic” throughout. The “Superoxide scavenging (EPR signal decrease)” value in series [3] is recorded as “trap the superoxide radicals”. The “Change of UV absorption spectrum on binding to λ-DNA” value in the series on λ-DNA is recorded as “hypochromism observed for the band at 270 nm”. Moreover, the MBEC value in the series on P. aeruginosa 27853 [4] worked out at 0.09 mM. The Hemolysis in [5] turned out to be 0.77 ± 0.14%.

For the origin of these results see PMC7504215, “Copper(II) Complexes with Mixed Heterocycle Ligands as Promising Antibacterial and Antitumor Species” (Molecules, 2020).
